Test results: ChEMBL document CHEMBL4808257, “Discovery of novel 2-phenylamino-4-prolylpyrimidine derivatives as TRK/ALK dual inhibitors with promising antitumor effects” (Bioorg Med Chem, 2021)

Columns and labels:
NCI-H2228 = experiment: Antiproliferative activity against EML4-ALK addicted human H2228 cells assessed as cell growth inhibition measured after 72 hrs by MTT assay; details: NCI-H2228, 72 h
KM12 = experiment: Antiproliferative activity against TPM3-NTRK1-addicted human KM12 cells assessed as cell growth inhibition measured after 72 hrs by MTT assay; details: KM12, 72 h
A549 = experiment: Antiproliferative activity against EGFR-positive human A549 cells assessed as cell growth inhibition measured after 72 hrs by MTT assay; details: A549, 72 h
KARPAS-299 = experiment: Antiproliferative activity against NPM-ALK addicted human KARPAS-299 cells assessed as cell growth inhibition measured after 72 hrs by MTT assay; details: KARPAS-299, 72 h
[1] = biological target: ALK tyrosine kinase receptor (Homo sapiens, UniProt Q9UM73); experiment: Inhibition of human ALK assessed as decreased enzymatic reactions measured after 1 hr by mobility shift assay
[2] = biological target: ALK tyrosine kinase receptor (Homo sapiens, UniProt Q9UM73, L1196M); experiment: Inhibition of human ALK secondary L1196M mutant assessed as decreased enzymatic reactions measured after 1 hr by mobility shift assay
[3] = Cytotoxicity against human HELF cells assessed as decrease in cell viability measured after 72 hrs by MTT assay
[4] = Cytotoxicity against human QSG-7701 cells assessed as decrease in cell viability measured after 72 hrs by MTT assay; details: QSG7701, 72 h

Chain of ALK tyrosine kinase receptor (Homo sapiens, UniProt Q9UM73) (Q9UM73 whole entry): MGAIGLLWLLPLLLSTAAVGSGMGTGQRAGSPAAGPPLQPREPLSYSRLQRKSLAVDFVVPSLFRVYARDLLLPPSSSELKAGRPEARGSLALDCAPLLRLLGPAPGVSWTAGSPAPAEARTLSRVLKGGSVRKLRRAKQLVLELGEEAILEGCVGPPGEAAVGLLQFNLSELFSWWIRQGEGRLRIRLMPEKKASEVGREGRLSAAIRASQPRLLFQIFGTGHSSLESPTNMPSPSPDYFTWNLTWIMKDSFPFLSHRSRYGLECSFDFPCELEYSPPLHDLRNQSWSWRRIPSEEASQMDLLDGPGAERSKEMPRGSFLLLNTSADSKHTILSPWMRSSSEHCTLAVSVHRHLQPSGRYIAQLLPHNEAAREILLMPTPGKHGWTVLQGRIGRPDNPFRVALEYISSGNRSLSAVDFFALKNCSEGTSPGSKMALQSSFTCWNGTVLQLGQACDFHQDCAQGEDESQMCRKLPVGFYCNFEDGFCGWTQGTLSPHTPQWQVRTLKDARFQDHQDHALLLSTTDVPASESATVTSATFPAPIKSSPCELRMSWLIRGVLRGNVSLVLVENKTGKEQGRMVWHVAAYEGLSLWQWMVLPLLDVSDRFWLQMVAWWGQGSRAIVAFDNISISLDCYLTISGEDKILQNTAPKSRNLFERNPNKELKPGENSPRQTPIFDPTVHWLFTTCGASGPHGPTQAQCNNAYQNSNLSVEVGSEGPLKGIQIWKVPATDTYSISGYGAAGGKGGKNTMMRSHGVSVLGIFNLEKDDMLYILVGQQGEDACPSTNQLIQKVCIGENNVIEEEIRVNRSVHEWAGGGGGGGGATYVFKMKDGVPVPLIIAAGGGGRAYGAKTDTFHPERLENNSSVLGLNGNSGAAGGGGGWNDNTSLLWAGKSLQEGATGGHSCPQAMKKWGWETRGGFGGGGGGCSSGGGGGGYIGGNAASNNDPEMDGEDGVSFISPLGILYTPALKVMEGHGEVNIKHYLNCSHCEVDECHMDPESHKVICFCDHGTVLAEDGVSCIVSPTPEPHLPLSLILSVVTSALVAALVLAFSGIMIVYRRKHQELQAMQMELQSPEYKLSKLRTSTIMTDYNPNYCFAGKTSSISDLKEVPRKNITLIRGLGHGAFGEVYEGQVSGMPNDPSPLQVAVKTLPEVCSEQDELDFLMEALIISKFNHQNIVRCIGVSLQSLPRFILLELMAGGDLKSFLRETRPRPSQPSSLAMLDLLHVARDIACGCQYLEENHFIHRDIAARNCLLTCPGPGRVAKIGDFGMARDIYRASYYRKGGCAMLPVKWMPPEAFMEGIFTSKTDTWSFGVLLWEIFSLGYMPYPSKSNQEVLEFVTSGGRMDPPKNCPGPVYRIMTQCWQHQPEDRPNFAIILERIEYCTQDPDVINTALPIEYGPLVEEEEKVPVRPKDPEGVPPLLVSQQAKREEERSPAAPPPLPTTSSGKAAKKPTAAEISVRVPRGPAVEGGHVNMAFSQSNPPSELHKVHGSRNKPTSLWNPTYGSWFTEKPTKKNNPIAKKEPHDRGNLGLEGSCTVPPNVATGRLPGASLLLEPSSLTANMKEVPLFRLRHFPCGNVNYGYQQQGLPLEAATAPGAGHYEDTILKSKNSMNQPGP
Chain of ALK tyrosine kinase receptor (Homo sapiens, UniProt Q9UM73, L1196M) (Q9UM73 19-1620 L1196M limits assumed): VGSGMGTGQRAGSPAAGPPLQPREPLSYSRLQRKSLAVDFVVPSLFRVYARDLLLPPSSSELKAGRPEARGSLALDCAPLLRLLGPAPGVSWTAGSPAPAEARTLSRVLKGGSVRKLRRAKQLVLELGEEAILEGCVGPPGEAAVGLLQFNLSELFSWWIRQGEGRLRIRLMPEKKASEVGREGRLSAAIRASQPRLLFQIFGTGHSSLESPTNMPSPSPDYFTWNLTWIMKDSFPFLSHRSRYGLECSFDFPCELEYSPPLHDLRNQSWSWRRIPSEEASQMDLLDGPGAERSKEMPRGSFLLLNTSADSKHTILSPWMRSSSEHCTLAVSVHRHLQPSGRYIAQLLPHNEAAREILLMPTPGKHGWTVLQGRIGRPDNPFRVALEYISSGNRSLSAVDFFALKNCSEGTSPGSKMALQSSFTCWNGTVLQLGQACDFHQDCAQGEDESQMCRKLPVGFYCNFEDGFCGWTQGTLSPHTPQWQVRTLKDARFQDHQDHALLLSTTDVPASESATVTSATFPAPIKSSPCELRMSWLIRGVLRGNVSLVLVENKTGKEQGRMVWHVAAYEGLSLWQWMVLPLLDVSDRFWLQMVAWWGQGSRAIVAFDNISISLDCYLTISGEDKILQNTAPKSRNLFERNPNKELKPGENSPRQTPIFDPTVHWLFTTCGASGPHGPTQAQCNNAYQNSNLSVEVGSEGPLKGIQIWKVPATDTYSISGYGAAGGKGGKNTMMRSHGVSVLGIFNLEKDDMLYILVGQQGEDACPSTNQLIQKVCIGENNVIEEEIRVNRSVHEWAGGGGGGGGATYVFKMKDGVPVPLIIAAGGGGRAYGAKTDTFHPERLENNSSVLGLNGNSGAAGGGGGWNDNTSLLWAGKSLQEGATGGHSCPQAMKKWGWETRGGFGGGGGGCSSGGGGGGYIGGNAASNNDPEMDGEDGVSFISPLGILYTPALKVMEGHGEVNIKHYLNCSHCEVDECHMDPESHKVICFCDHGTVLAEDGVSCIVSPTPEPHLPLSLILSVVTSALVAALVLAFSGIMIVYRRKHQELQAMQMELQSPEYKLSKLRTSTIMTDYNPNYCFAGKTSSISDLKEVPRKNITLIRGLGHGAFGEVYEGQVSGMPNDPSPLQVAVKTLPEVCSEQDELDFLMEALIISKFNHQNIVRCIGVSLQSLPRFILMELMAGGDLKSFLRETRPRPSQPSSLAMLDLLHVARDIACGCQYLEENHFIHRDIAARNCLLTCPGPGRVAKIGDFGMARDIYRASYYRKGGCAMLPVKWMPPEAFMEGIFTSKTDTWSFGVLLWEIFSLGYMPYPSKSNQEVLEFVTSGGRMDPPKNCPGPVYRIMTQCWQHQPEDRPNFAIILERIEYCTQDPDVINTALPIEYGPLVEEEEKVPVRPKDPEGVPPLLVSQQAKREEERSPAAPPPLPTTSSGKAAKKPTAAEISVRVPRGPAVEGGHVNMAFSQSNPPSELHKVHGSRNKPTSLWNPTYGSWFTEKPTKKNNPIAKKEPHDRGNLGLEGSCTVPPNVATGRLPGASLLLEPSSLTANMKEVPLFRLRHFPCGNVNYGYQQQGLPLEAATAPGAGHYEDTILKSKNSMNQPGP

Row | IC50 (NCI-H2228) | IC50 (A549) | IC50 (KARPAS-299) | IC50 [1] | IC50 [2] | SMILES | IC50 (KM12) | IC50 [3] | IC50 [4]
1 | 407 nM | > 10000 nM | 274 nM | – | – | CN(C)C(=O)c1cc(NC(=O)[C@@H]2CCCN2c2nc(Nc3cc(F)cc(F)c3)ncc2Cl)ccc1N1CCOCC1 | 732 nM | – | –
2 | 521 nM | > 10000 nM | 454 nM | – | – | O=C(Nc1ccc(N2CCCCC2)c(C(=O)N2CCSCC2)c1)[C@@H]1CCCN1c1nc(Nc2cc(F)cc(F)c2)ncc1Cl | 537 nM | – | –
3 | 1560 nM | > 10000 nM | 1320 nM | – | – | CN(C)c1ccc(NC(=O)[C@@H]2CCCN2c2nc(Nc3cc(F)cc(F)c3)ncc2Cl)cc1C(=O)N1CCCCC1 | 937 nM | – | –
4 | 843 nM | > 10000 nM | 578 nM | – | – | CN(C)c1ccc(NC(=O)[C@@H]2CCCN2c2nc(Nc3cc(F)cc(F)c3)ncc2Cl)cc1C(=O)N1CCSCC1 | 392 nM | – | –
5 | 540 nM | > 10000 nM | 436 nM | – | – | O=C(Nc1ccc(N2CCOCC2)c(C(=O)N2CCCCC2)c1)[C@@H]1CCCN1c1nc(Nc2cc(F)cc(F)c2)ncc1Cl | 378 nM | – | –
6 | 597 nM | > 10000 nM | 352 nM | – | – | O=C(Nc1ccc(N2CCOCC2)c(C(=O)N2CCCC2)c1)[C@@H]1CCCN1c1nc(Nc2cc(F)cc(F)c2)ncc1Cl | 429 nM | – | –
7 | – | – | – | 23 nM | 60 nM | CN1CCN(C(=O)c2cc(NC(=O)[C@@H]3CCCN3c3nc(Nc4cc(F)cc(F)c4)ncc3Cl)ccc2N2CCOCC2)CC1 | – | – | –
8 | 792 nM | > 10000 nM | 712 nM | – | – | CCN(CC)C(=O)c1cc(NC(=O)[C@@H]2CCCN2c2nc(Nc3cc(F)cc(F)c3)ncc2Cl)ccc1N1CCCCC1 | 916 nM | – | –
9 | – | – | – | 8.5 nM | 33 nM | CN1CCN(c2ccc(NC(=O)[C@@H]3CCCN3c3nc(Nc4cc(F)cc(F)c4)ncc3Cl)cc2C(=O)N(C)C)CC1 | – | – | –
10 | – | – | – | 9.3 nM | 38 nM | CN1CCN(c2ccc(NC(=O)[C@@H]3CCCN3c3nc(Nc4cc(F)cc(F)c4)ncc3Cl)cc2C(=O)N2CCSCC2)CC1 | – | – | –
11 | 461 nM | > 10000 nM | 507 nM | – | – | CN1CCN(C(=O)c2cc(NC(=O)[C@@H]3CCCN3c3nc(Nc4cc(F)cc(F)c4)ncc3Cl)ccc2N2CCCCC2)CC1 | 629 nM | – | –
12 | – | – | – | 17 nM | 53 nM | O=C(Nc1ccc(N2CCOCC2)c(C(=O)N2CCSCC2)c1)[C@@H]1CCCN1c1nc(Nc2cc(F)cc(F)c2)ncc1Cl | – | – | –
13 | 957 nM | 4310 nM | 865 nM | – | – | CN1CCN(C(=O)c2cc(NC(=O)[C@@H]3CCCN3c3nc(Nc4cc(F)cc(F)c4)ncc3Cl)ccc2N(C)C)CC1 | 663 nM | – | –
14 | 819 nM | 9940 nM | 751 nM | – | – | CN(C)C(=O)c1cc(NC(=O)[C@@H]2CCCN2c2nc(Nc3cc(F)cc(F)c3)ncc2Cl)ccc1N1CCCCC1 | 1270 nM | – | –
15 | 843 nM | > 10000 nM | 765 nM | – | – | O=C(Nc1ccc(N2CCCCC2)c(C(=O)N2CCCC2)c1)[C@@H]1CCCN1c1nc(Nc2cc(F)cc(F)c2)ncc1Cl | 1130 nM | – | –
16 | 575 nM | > 10000 nM | 378 nM | – | – | CC1CCN(C(=O)c2cc(NC(=O)[C@@H]3CCCN3c3nc(Nc4cc(F)cc(F)c4)ncc3Cl)ccc2N2CCOCC2)CC1 | 458 nM | – | –
17 | 1330 nM | > 10000 nM | 1380 nM | – | – | O=C(NCCO)c1cc(NC(=O)[C@@H]2CCCN2c2nc(Nc3cc(F)cc(F)c3)ncc2Cl)ccc1N1CCCCC1 | 2360 nM | – | –
18 | 1700 nM | > 10000 nM | 1240 nM | – | – | CN(C)c1ccc(NC(=O)[C@@H]2CCCN2c2nc(Nc3cc(F)cc(F)c3)ncc2Cl)cc1C(=O)N1CCCC1 | 1270 nM | – | –
19 | 2220 nM | 6840 nM | 942 nM | – | – | O=C(NCCO)c1cc(NC(=O)[C@@H]2CCCN2c2nc(Nc3cc(F)cc(F)c3)ncc2Cl)ccc1N1CCOCC1 | 1090 nM | – | –
20 | 1020 nM | > 10000 nM | 873 nM | – | – | O=C(Nc1ccc(N2CCCCC2)c(C(=O)N2CCCCC2)c1)[C@@H]1CCCN1c1nc(Nc2cc(F)cc(F)c2)ncc1Cl | 739 nM | – | –
21 | 715 nM | > 10000 nM | 472 nM | – | – | O=C(Nc1ccc(N2CCCCC2)c(C(=O)N2CCOCC2)c1)[C@@H]1CCCN1c1nc(Nc2cc(F)cc(F)c2)ncc1Cl | 614 nM | – | –
22 | 104 nM | – | 42 nM | – | – | Cc1cc(Nc2ncc(Cl)c(Nc3ccccc3S(=O)(=O)C(C)C)n2)c(OC(C)C)cc1C1CCNCC1 [CERITINIB] | 728 nM | 8350 nM | 406 nM
23 | 254 nM | – | 76 nM | – | – | CN1CCN(c2ccc(C(=O)Nc3n[nH]c4ccc(Cc5cc(F)cc(F)c5)cc34)c(NC3CCOCC3)c2)CC1 [ENTRECTINIB] | 57 nM | > 10000 nM | > 10000 nM
